Consider 28 molecules from patent publication US7153863B2, “Therapeutic compounds based on pyrazolopyridline derivatives” (SmithKline Beecham Corporation, priority 2002, dated 2006).

The subject of the assay is HSV-1. The assay is described as follows: HSV-1 infection of Vero 76 cells, HSV DNA hybridization capture assay. To be noted: Human alphaherpesvirus 1; HSV-1 (MOI=0.001) in Vero 76 cells, 40–48 hours at 37° C., viral DNA by hybridization/chemiluminescence. It is filed as cell-based, herpes simplex virus 1. As for the experimental part:
Vero 76 cells were maintained in MEM with Earle's salts, L-glutamine, 8% FBS (Hyclone, A-1111-L) and 100 units/mL Penicillin-100 μg/mL Streptomycin. For assay conditions, FBS was reduced to 2%. Cells are seeded into 96-well tissue culture plates at a density of 5×10^4 cells/well after being incubated for 45 min at 37° C. in the presence of HSV-1 or HSV-2 (MOI=0.001). Test compounds are added to the wells and the plates are incubated at 37° C. for 40–48 hours. Cell lysates are prepared as follows: media was removed and replaced with 150 μL/well 0.2 N NaOH with 1% Igepal CA 630 or NP-40. Plates were incubated up to 14 days at room temperature in a humidified chamber to prevent evaporation.
For the detection probe, a gel-purified, digoxigenin-labeled, […] PCR fragment of the HSV UL-15 sequence was utilized. PCR conditions included 0.5 μM primers, 180 μM dTP, 20 μM dUTP-digoxigenin (Boehringer Mannheim 1558706), 200 μM each of dATP, dCTP, and dGTP, 1×PCR Buffer II (Perkin Elmer), 2.5 mM MgCl2, 0.025 units/μL of AmpliTaq Gold polymerase (Perkin Elmer), and 5 ng of gel-purified HSV DNA per 100 μL Extension conditions were 10 min at 95° C., followed by 30 cycles of 95° C. for 1 min, 55° C. for 30 sec, and 72° C. for 2 min. The amplification was completed with a 10-min incubation at 72° C. Primers were selected to amplify a 728 bp probe spanning a section of the HSV1 UL15 open reading frame (nucleotides 249–977). Single-stranded transcripts were purified with Promega M13 Wizard kits. The final product was mixed 1:1 with a mixture of 6 M GuSCN, 100 mM EDTA and 200 μg/mL herring sperm DNA and stored at 4° C.
The capture DNA plasmid (HSV UL13 region in pUC) was linearized by cutting with Xba I, denatured for 15 min at 95° C. and diluted immediately into Reacti-Bind DNA Coating Solution (Pierce, 17250, diluted 1:1 with TE buffer, pH 8) at 1 ng/μL 75 μL/well were added to Corning (#3922 or 9690) white 96-well plates and incubated at room temperature for at least 4 hrs before washing twice with 300 μL/well 0.2×SSC/0.05% Tween-20 (SSC/T buffer). The plates were then incubated overnight at room temperature with 150 μL/well 0.2 N NaOH, 1% IGEPAL and 10 μg/mL herring sperm DNA.
Twenty-seven (27) μL of cell lysate was combined with 45 μL of hybridization solution (final concentration: 3M GuSCN, 50 mM EDTA, 100 μg/ml salmon sperm DNA, 5× Denhardt's solution, 0.25×APE, and 5 ng of the digoxigenin-labeled detection probe). APE is 1.5 M NH4-acetate, 0.15 M ammonium phosphate monobasic, and 5 mM EDTA adjusted to pH 6.0. Mineral oil (50 μL) was added to prevent evaporation. The hybridization plates were incubated at 95° C. for 10 minutes to denature the DNA, then incubated at 42° C. overnight. The wells were washed 6× with 300 μL/well SSC/T buffer then incubated with 75 μL/well anti-digoxigenin-HRP-conjugated antibody (Boehringer Mannheim 1207733, 1:5000 in TE) for 30 min at room temperature. The wells were washed 6× with 300 μL/well with PBS/0.05% Tween-20 before 75 μL/well SuperSignal LBA substrate (Pierce) was added. The plates were incubated at room temperature for 30 minutes and chemiluminescence was measured in a Wallac Victor reader.
The following results were obtained for HSV-1.
For the molecule `COCc1nn2c(NC3CCCC3)cccc2c1-c1ccnc(NC2CCCC2)n1` [Example 22, N-Cyclopentyl-3-[2-(cyclopentylamino)-4-pyrimidinyl]-2-(methoxymethyl)pyrazolo[1,5-a]pyridin-7-amine], the IC50 was 1.2 µM.
In turn, `CC(C)c1nn2c(NC3CCCC3)cccc2c1-c1ccnc(NC2CCCC2)n1` [Example 33, N-Cyclopentyl-3-[2-(cyclopentylamino)pyrimidin-4-yl]-2-isopropylpyrazolo[1,5-a]pyridin-7-amine] showed a 50% inhibitory concentration (IC50) of 2 µM.
As for `CSc1cccc2c(-c3ccnc(NC4CCCC4)n3)c(CC(C)C)nn12` [Example 8, N-Cyclopentyl-4-[2-isobutyl-7-(methylthio)pyrazolo[1,5-a]pyridin-3-yl]pyrimidin-2-amine], 3.8 µM corresponded to half-maximal inhibition (IC50).
For `OC(c1ccccc1)c1nn2ccccc2c1-c1ccnc(NC2CCCC2)n1` (stereo not shown) [Example 14, {3-[2-(Cyclopentylamino)-4-pyrimidinyl]pyrazolo[1,5-a]pyridin-2-yl}(phenyl)methanol] the value was 2.5 µM; for `CC(C)NCc1nn2ccccc2c1-c1ccnc(NC2CCCC2)n1` [Example 25, N-Cyclopentyl-4-{2-[(isopropylamino)methyl]pyrazolo[1,5-a]pyridin-3-yl}-2-pyrimidinamine], 27 µM; for `c1cc(NC2CCCC2)n2nc(C3CC3)c(-c3ccnc(NC4CCCC4)n3)c2c1` [Example 36, N-Cyclopentyl-3-[2-(cyclopentylamino)pyrimidin-4-yl]-2-cyclopropylpyrazolo[1,5-a]pyridin-7-amine], 0.9 µM.
In the case of `CSc1nccc(-c2c(CC(C)C)nn3ccccc23)n1` [Example 5, 2-Isobutyl-3-[2-(methylthio)pyrimidin-4-yl]pyrazolo[1,5-a]pyridine] it was 21 µM; in that of `COCCOCc1nn2c(Cl)cccc2c1-c1ccnc(NC2CCCC2)n1` [Example 29, 4-{7-Chloro-2-[(2-methoxyethoxy)methyl]pyrazolo[1,5-a]pyridin-3-yl}-N-cyclopentyl-2-pyrimidinamine], 23 µM; in that of `c1ccc(Cc2nn3c(NC4CCCC4)cccc3c2-c2ccnc(NC3CCCC3)n2)cc1` [Example 19, N-{4-[2-Benzyl-7-(cyclopentylamino)pyrazolo[1,5-a]pyridin-3-yl]-2-pyrimidinyl}-N-cyclopentylamine], 0.8 µM.
In the case of `COCc1nn2c(SC)cccc2c1-c1ccnc(NC2CCCC2)n1` [Example 21, N-Cyclopentyl-4-[2-(methoxymethyl)-7-(methylsulfanyl)pyrazolo[1,5-a]pyridin-3-yl]-2-pyrimidinamine] it was 4.6 µM; in that of `CCCc1nn2c(Cl)cccc2c1-c1ccnc(F)c1` [Example 3, 7-Chloro-3-(2-fluoropyridin-4-yl)-2-propylpyrazolo[1,5-a]pyridine], 37 µM; in that of `CCCc1nn2c(NC3CCCC3)cccc2c1-c1ccnc(NC2CCCC2)c1` [Example 4, N-Cyclopentyl-3-[2-(cyclopentylamino)pyridin-4-yl]-2-propylpyrazolo[1,5-a]pyridin-7-amine], 0.9 µM.
As for `CSc1nccc(-c2c(C3CC3)nn3ccccc23)n1` [Example 34, 2-Cyclopropyl-3-[2-(methylthio)pyrimidin-4-yl]pyrazolo[1,5-a]pyridine], the IC50 is > 40 µM.
`O=C(c1ccccc1)c1nn2ccccc2c1-c1ccnc(NC2CCCC2)n1` [Example 15, {3-[2-(Cyclopentylamino)-4-pyrimidinyl]pyrazolo[1,5-a]pyridin-2-yl}(phenyl)methanone] registered an IC50 of 7 µM.
In the case of `c1ccc(Cc2nn3ccccc3c2-c2ccnc(NC3CCCC3)n2)cc1` [Example 17, 4-(2-Benzylpyrazolo[1,5-a]pyridin-3-yl)-N-cyclopentyl-2-pyrimidinamine] it was 2 µM; in that of `CCCc1nn2ccccc2c1-c1ccnc(F)c1` [Example 1, 3-(2-Fluoropyridin-4-yl)-2-propylpyrazolo[1,5-a]pyridine], > 40 µM; in that of `CC(C)NCc1nn2c(NC3CCCC3)cccc2c1-c1ccnc(NC2CCCC2)n1` [Example 26, N-Cyclopentyl-3-[2-(cyclopentylamino)-4-pyrimidinyl]-2-[(isopropylamino)methyl]pyrazolo[1,5-a]pyridin-7-amine], > 2.5 µM.
In the case of `CC(C)c1nn2ccccc2c1-c1ccnc(NC2CCCC2)n1` [Example 32, N-Cyclopentyl-4-(2-isopropylpyrazolo[1,5-a]pyridin-3-yl)pyrimidin-2-amine] it was 4.4 µM; in that of `CC(C)NCCCc1nn2c(Cl)cccc2c1-c1ccnc(NC2CCCC2)n1` [Example 27, 4-{7-Chloro-2-[3-(isopropylamino)propyl]pyrazolo[1,5-a]pyridin-3-yl}-N-cyclopentyl-2-pyrimidinamine], 23 µM.
In the case of `CC(C)Cc1nn2c([S+](C)[O-])cccc2c1-c1ccnc(NC2CCCC2)n1` (stereo not shown) [Example 9, N-Cyclopentyl-4-[2-isobutyl-7-(methylsulfinyl)pyrazolo[1,5-a]pyridin-3-yl]pyrimidin-2-amine] it was 1.9 µM.
As for `CSc1nccc(-c2c(C=O)nn3ccccc23)n1` [Example 12, 3-[2-(Methylthio)pyrimidin-4-yl]pyrazolo[1,5-a]pyridine-2-carbaldehyde], the 50% inhibitory concentration (IC50) was > 5 µM.
For `CC(C)NCCCc1nn2c(NC3CCCC3)cccc2c1-c1ccnc(NC2CCCC2)n1` [Example 28, N-Cyclopentyl-3-[2-(cyclopentylamino)-4-pyrimidinyl]-2-[3-(isopropylamino)propyl]pyrazolo[1,5-a]pyridin-7-amine] the value was > 5 µM; for `CSc1nccc(-c2c(CNC(C)C)nn3ccccc23)n1` [Example 24, N-({3-[2-(Methylsulfanyl)-4-pyrimidinyl]pyrazolo[1,5-a]pyridin-2-yl}methyl)-2-propanamine], 2.1 µM.
As to `CC(C)Cc1nn2ccccc2c1-c1ccnc([S+](C)[O-])n1` (stereo not shown) [Example 6, 2-Isobutyl-3-[2-(methylsulfinyl)pyrimidin-4-yl]pyrazolo[1,5-a]pyridine], the midpoint of inhibition, the IC50, lay at 24 µM.
In the case of `COCCNc1cccc2c(-c3ccnc(NC4CCCC4)n3)c(COCCOC)nn12` [Example 30, 3-[2-(Cyclopentylamino)-4-pyrimidinyl]-2-[(2-methoxyethoxy)methyl]-N-(2-methoxyethyl)pyrazolo[1,5-a]pyridin-7-amine] it was 4.7 µM.
In turn, `c1ccn2nc(C3CC3)c(-c3ccnc(NC4CCCC4)n3)c2c1` [Example 35, N-Cyclopentyl-4-(2-cyclopropylpyrazolo[1,5-a]pyridin-3-yl)pyrimidin-2-amine] had an IC50 of 3.1 µM.
In turn, `COCCOCc1nn2c(NC3CCCC3)cccc2c1-c1ccnc(NC2CCCC2)n1` [Example 31, N-Cyclopentyl-3-[2-(cyclopentylamino)-4-pyrimidinyl]-2-[(2-methoxyethoxy)methyl]pyrazolo[1,5-a]pyridin-7-amine] came in with an IC50 of 1.5 µM.
For `c1cc(NC2CCCC2)n2nc(CCCN3CCCC3)c(-c3ccnc(NC4CCCC4)n3)c2c1` [Example 23, N-Cyclopentyl-3-[2-(cyclopentylamino)-4-pyrimidinyl]-2-[3-(1-pyrrolidinyl)propyl]pyrazolo[1,5-a]pyridin-7-amine] the value was > 2.5 µM.

A word on the IC50: it is the concentration that inhibits the measured activity by half.
